Measured values published in patent US9126997B1, “Synergistic effect of glucocorticoid receptor agonists in combination with proteosome inhibitors for treating leukemia and myeloma” (Northwestern University, priority 2010, dated 2015).

Key:
[1] = system: glucocorticoid receptor (GR); assay: GR protein levels in cells after treatment with proteasome inhibitor; type: cell-based, human
Text: (§1) Further, GR protein expression can be increased both in the absence and in the presence of […] such as glucocorticoids and SEGRA. Importantly, in the presence of GR ligands, cell pre-treatment with BZ results in the accumulation of GR whose function is defined by the ligand. […] Thus, SEGRA+BZ administered in combination will maximize the anti-inflammatory and anti-proliferative effects of SEGRA therapy that are based on GR transrepression, and at the same time will not induce metabolic side effects typical for glucocorticoids that are based on GR transactivation.

[2] = system: glucocorticoid receptor (GR); assay: Function (transactivation / transrepression) of GR accumulated after cell pre-treatment with BZ in the presence of GR ligands; type: cell-based
Text: as §1

In the case of `CC(C)C[C@H](NC(=O)[C@H](Cc1ccccc1)NC(=O)c1cnccn1)B(O)O` [Bortezomib], the “endogenous GR protein levels” value ([1]; human epithelial and lymphoid cell lines and primary cell cultures) is reported as “strongly increases endogenous GR protein levels”, the “GR expression in GR-negative cells” value ([1]; some glucocorticoid-resistant GR-negative cells) is reported as “re-expression of GR” and the “GR accumulation and function” value ([2]; in the presence of SEGRA) is reported as “accumulation of GR whose activity is shifted towards transrepression”. The “GR accumulation and function” value ([2]; in the presence of glucocorticoids) was “accumulation of GR that is proficient in both transactivation and transrepression”.
